The subject of experiment [1] is TFEB. The experiment in a line: High content TFEB-GFP nuclear translocation assay. The class given is cell-based. Particulars: Homo sapiens, TFEB-GFP HeLa cells.
In experiment [2] the test system is TFEB. Kind of experiment: TFEB molecular weight shift and localization in TFEB-3xFLAG HeLa cells stimulated with amino-acid rich medium plus inhibitor (FIG. 19B). The class given is cell-based. Particulars: Torin 1 250 nM, Rapamycin 2.5 μM. As to the method:
FIG. 19 mTORC1 regulates TFEB. (A) Lysosomal stress inhibits mTOR signaling. Immunoblotting of protein extracts isolated from HeLa cells treated overnight, as indicated. Membranes were probed with antibodies for p-T202/Y204-ERK1/2, ERK1/2, p-T389-S6K, and S6K to measure ERK and mTORC1 activities. […] FLAG immunoblotting of cytosolic and nuclear fractions isolated from TFEB-3×FLAG HeLa cells cultured in amino acid-free media and subsequently stimulated as indicated for at least 3 h. Correct subcellular fractionation was verified with H3 and tubulin antibodies. (C, D) Effects and dose—response curves of ERK and mTOR inhibitors on TFEB nuclear translocation. […] After 3 h at 37° C. in RPMI medium containing one of each of the compounds, the cells were washed, fixed, and stained with DAPI and photographed by using confocal automated microscopy (Opera high content system, Perkin Elmer). (C) Representative images of test concentrations for each compound. Scale bars represent 30 μm. […] The EC50 for each compound was calculated using Prism software (see Materials and Methods for details). (E) Amino acids induce TFEB molecular weight shift. Immunoblotting of protein extracts isolated from HEK-293T cells transfected either TFEB-3×FLAG or with an empty vector were nutrient starved and stimulated for 50 minutes with amino acids (a.a.). Antibody used were p-T389-S6K, S6K and FLAG. (F) Rag knockdown induces TFEB nuclear translocation. HeLa cells stably expressing Flag-3×TFEB were infected with lentiviruses encoding a Short hairpin (Sh-) RNA targeting luciferase (control) or RagC and RagD mRNAs. […] TFEB localization was detected with a FLAG antibody, whereas tubulin and H3 were used as controls for the cytosolic and nuclear fraction, respectively; levels of S6K phosphorylation were used to test RagC and RagD knockdown efficiency.
The mouse anti-TFEB monoclonal antibody was purchased from My Biosource catalogue No. MBS 120432. To generate anti-pS142 specific antibodies, rabbits were immunized with the following peptide coupled to KLH: AGNSAPN{pSer}[…]. Following the fourth immunization, rabbits were sacrificed and the serum was collected. Non-phosphospecific antibodies were depleted from the serum by circulation through a column containing the nonphosphorylated antigene. The phosphospecific antibodies were subsequently purified using a column containing the phosphorylated peptide. Cells were lysed with M-PER buffer (Thermo) containing protease and phosphatase inhibitors (Sigma); nuclear/cytosolic fractions were isolated as above described. Proteins were separated by SDS-PAGE (Invitrogen; reduced NuPAGE 4-12% Bis-tris Gel, MES SDS buffer). If needed, the gel was stained using 20 ml Imperial Protein Stain (Thermo Fisher) at room temperature for 1 h and de-stained with water. […]

Where [3] appears, read: 3 h, ten concentrations 2.54 nM to 50 μM (FIG. 19D), read-out: EC50, TFEB nuclear translocation.
Where [4] appears, read: mobilization of cytosolic TFEB to the nucleus, 3 h at 37° C. in RPMI, ten concentrations 50 μM to 2.54 nM, 4 runs, read-out: Average EC50.

Each structure is given as a SMILES string. Read-outs that look alike come from different tables or passages of the source.

For orientation: EC50 means the midpoint of the concentration-response curve.

In the case of `CO[C@H]1C[C@@H]2CC[C@@H](C)[C@@](O)(O2)C(=O)C(=O)N2CCCC[C@H]2C(=O)O[C@H]([C@H](C)C[C@@H]2CC[C@@H](O)[C@H](OC)C2)CC(=O)[C@H](C)/C=C(\C)[C@@H](O)[C@@H](OC)C(=O)[C@H](C)C[C@H](C)/C=C/C=C/C=C/1C` [RAPAMYCIN], the figures for the EC50 in experiment [1] (setting [3]) and in experiment [1] (setting [4]) were 104 µM and over 15 µM, respectively. In experiment [2], the “TFEB subcellular localization after nutrient stimulation” value is “did not affect TFEB subcellular localization”. The “TFEB molecular weight shift induced by nutrients” value in experiment [2] (U0126 50 μM) was “partial molecular weight shift”.

`CCC(=O)N1CCN(c2ccc(-n3c(=O)ccc4cnc5ccc(-c6cnc7ccccc7c6)cc5c43)cc2C(F)(F)F)CC1` [TORIN 1]: the EC50 in experiment [1] (setting [3]) is 0.148 µM; in experiment [1] (setting [4]) it was under 7 µM. Moreover, the “TFEB subcellular localization after nutrient stimulation” value in experiment [2] is given as “massive TFEB nuclear accumulation”.

Values taken from US20140038920A1, “TFEB PHOSPHORYLATION INHIBITORS AND USES THEREOF” (FONDAZIONE TELETHON, priority 2011, published 2014).
